According to US20220371988A1, “TRPV1 AGONIST AND PREPARATION METHOD THEREFOR AND USE THEREOF” (NANJING DELOVA BIOTECH CO. LTD., priority 2019, published 2022):
In brackets after ≈: the same amount, converted by molar mass. Read-outs that look alike come from different tables or passages of the source.

How the values were obtained:
[1] = parent drug, cited from earlier work
[2] = test system: rats as models of pain after incision; test: Mechanical allodynia test (Von Frey method) in rats as models of pain after incision; format: in vivo, SD rat
[3] = test system: rats as models of pain after incision; test: Thermal hyperalgesia test (Hargreaves method) in rats as models of pain after incision; format: in vivo, SD rat
[4] = HD group: A-17 0.6 mg/animal, parent 0.36 mg/animal
[5] = LD group: A-17 0.15 mg/animal, parent 0.09 mg/animal

(E)-2-methoxy-4-(8-methylnonanamide)phenyl 2-([[1,4′-bipiperidin]-1′-yl) propanoate hydrochloride [Compound A-16]
Release half-life t1/2 (pH 4.5): About 73 h | Release half-life t1/2 (pH 7.4): About 157 h

COc1cc(CNC(=O)CCCC/C=C/C(C)C)ccc1O [trans-8-methyl-N-vanillyl-6-nonenamide]
Solubility in water ([1]; at 25° C.): 8.41 µg/mL (≈ 27.5 µM) | Log P [1]: 3.8 | Time after surgery at which paw withdrawal threshold (PWT) was increased vs blank preparation group (P<0.05) [2, 4]: 4 h | Time after surgery at which paw withdrawal threshold (PWT) was increased vs blank preparation group (P<0.05) [2, 5]: no significant effect | Effect on overall thermal hyperalgesia (AUC of time-TWL curve) within 7 days vs blank preparation ([3]; HD group: A-17 0.6 mg/animal (P<0.001), parent 0.36 mg/animal (P<0.01)): effective in relieving the overall thermal hyperalgesia | Duration of analgesic effect on thermal hyperalgesia [3, 4]: 3 days | Effect on overall thermal hyperalgesia (AUC of time-TWL curve) within 7 days vs blank preparation [3, 5]: no significant effect | Time after surgery at which thermal withdrawal latency (TWL) was increased vs blank preparation group (P<0.05) ([3]; LD group: A-17 0.15 mg/animal, parent 0.09 mg/animal, injection at incision site): 1 h
